Assay [1] deals with N87 (human gastric carcinoma derived from metastatic liver site). The experiment in a line: Cytotoxicity assay for payloads (MTS), N87 cells. In kind it is cell-based. The settings on record: N87 cells, incubated with compounds for four days, MTS absorbance 490 nm, read-out: N87 IC50. The procedure: (§1) Cancer cell lines were obtained from ATCC (Manassas, Va.). N87 (human gastric carcinoma derived from metastatic liver site). HL60 (leukemia), A375 (melanoma) and HUVEC (human umbilical vein endothelial cells). were grown in RPMI 1640 media. All media were supplemented with 10% fetal bovine serum, 1% sodium pyruvate, and 1% L-glutamine (Invitrogen, Grand Island, N.Y.). Human umbilical vein endothelial cells (HUVEC) were obtained from Lonza (Allendale, N.J.) and maintained in EGM2 media supplemented with EGM-2 SingleQuots (Lonza # CC-4176). All cells were maintained in a humidified incubator (37° C., 5% CO2).
(§2) Cells in 100 μl medium were cultured in a 96-well plate. Cancer cell lines treated with the indicated compounds by adding 50 μl of 3× stocks in duplicate at 10 concentrations. Cells were incubated with compounds for four days, then 30 μl of CellTiter® 96 AQueous One MTS Solution (Promega Cat # G3582) was added to the cells, incubated 1.5 hr at 37° C., then absorbance measured at 490 nm on a Victor plate reader (Perkin Elmer, Waltham, Mass.). Relative cell viability was determined as a percentage of untreated control wells. IC50 values were calculated using four parameter logistic model #203 with XLfit v4.2 (IDBS, Guildford, Surry, UK).

The next assay concerns HL60 (leukemia). Put plainly: Cytotoxicity assay for payloads (MTS), HL-60 cells. The following applies: incubated with compounds for four days, MTS absorbance 490 nm. In kind it is cell-based. The method, then:
as §1, §2

Where two headings read alike, the source gives them in different places.

This passage reports IC50 results from patent publication US10086085B2, “Bifunctional cytotoxic agents” (priority 2014, dated 2018).

By IC50 is commonly meant the concentration that gives 50% inhibition.

As for `CC(=O)Oc1cc2c(c3ccccc13)[C@H](CCl)CN2C(=O)CC12CC(CC(=O)N3C[C@@H](CCl)c4c3cc(OC(C)=O)c3ccccc43)(C1)C2` [Compound 158, bicyclo[1.1.1]pentane-1,3-diylbis[(1-oxoethane-2,1-diyl)(1S)-1-(chloromethyl)-1,2-dihydro-3H-benzo[e]indole-3,5-diyl] diacetate], the IC50 in assay [1] (Homo sapiens, 96 h) worked out at 14.3 nM; in the assay with HL60 (leukemia) (Homo sapiens, 96 h), 4.91 nM.
Consider `CC(=O)Oc1cc2c(c3ccccc13)[C@H](CCl)CN2C(=O)C12CCC(C(=O)N3C[C@@H](CCl)c4c3cc(OC(C)=O)c3ccccc43)(CC1)N2` [Compound 79, 7-azabicyclo[2.2.1]heptane-1,4-diylbis[carbonyl(1S)-1-(chloromethyl)-1,2-dihydro-3H-benzo[e]indole-3,5-diyl]diacetate], for which the IC50 was determined as 7.96 nM in assay [1] and 0.496 nM with HL60 (leukemia).
As for `CC(=O)Oc1cc2c(c3ccccc13)[C@H](CCl)CN2C(=O)CC1(CC(=O)N2C[C@@H](CCl)c3c2cc(OC(C)=O)c2ccccc32)CCC1` [Compound 156, cyclobutane-1,1-diylbis[(1-oxoethane-2,1-diyl)(1S)-1-(chloromethyl)-1,2-dihydro-3H-benzo[e]indole-3,5-diyl] diacetate], the IC50 is at least 10 nM in assay [1] (Homo sapiens, 96 h) and 61.1 nM in the assay on HL60 (leukemia) (Homo sapiens, 96 h).
The like results for `O=C(N1C[C@@H](CCl)c2c1cc(O)c1ccccc21)C12CC(C(=O)N3C[C@@H](CCl)c4c3cc(OP(=O)(O)O)c3ccccc43)(C1)C2` [Compound 163, (1S)-1-(chloromethyl)-3-[(3-{[(1S)-1-(chloromethyl)-5-hydroxy-1,2-dihydro-3H-benzo[e]indol-3-yl]carbonyl}bicyclo[1.1.1]pent-1-yl)carbonyl]-2,3-dihydro-1H-benzo[e]indol-5-yl dihydrogen phosphate] were, in that order, 6.89 nM and 0.179 nM.
For `O=C(O)[C@H]1O[C@@H](Oc2cc3c(c4ccccc24)[C@H](CCl)CN3C(=O)CC23CC(C(=O)N4C[C@@H](CCl)c5c4cc(O)c4ccccc54)(C2)C3)[C@H](O)[C@@H](O)[C@@H]1O` [Compound 179, (1S)-1-(chloromethyl)-3-[(3-{[(1S)-1-(chloromethyl)-5-hydroxy-1,2-dihydro-3H-benzo[e]indol-3-yl]carbonyl}bicyclo[1.1.1]pent-1-yl)acetyl]-2,3-dihydro-1H-benzo[e]indol-5-yl beta-D-glucopyranosiduronic acid] the same measures were 173 nM and 14.3 nM.
As to `Cc1c[nH]c2c(O)cc3c(c12)[C@H](CCl)CN3C(=O)C12CC(C(=O)N3C[C@@H](CCl)c4c3cc(O)c3ccccc43)(C1)C2` [Compound 154, [(1S)-1-(chloromethyl)-5-hydroxy-1,2-dihydro-3H-benzo[e]indol-3-yl](3-{[(1S)-1-(chloromethyl)-5-hydroxy-8-methyl-1,6-dihydropyrrolo[3,2-e]indol-3(2H)-yl]carbonyl}bicyclo[1.1.1]pent-1-yl)methanone], the IC50 was found to be 0.026 nM in assay [1] (Homo sapiens, 96 h) and 0.003 nM in the assay on HL60 (leukemia) (Homo sapiens, 96 h).
For `COC(=O)[C@H]1O[C@@H](Oc2cc3c(c4ccccc24)[C@H](CCl)CN3C(=O)C23CC(C(=O)N4C[C@@H](CCl)c5c4cc(O)c4ccccc54)(C2)C3)[C@H](OC(C)=O)[C@@H](OC(C)=O)[C@@H]1OC(C)=O` [Compound 141, (1S)-1-(chloromethyl)-3-[(3-{[(1S)-1-(chloromethyl)-5-hydroxy-1,2-dihydro-3H-benzo[e]indol-3-yl]carbonyl}bicyclo[1.1.1]pent-1-yl)carbonyl]-2,3-dihydro-1H-benzo[e]indol-5-yl methyl 2,3,4-tri-O-acetyl-beta-D-glucopyranosiduronate] the same measures were 12.7 nM and 0.361 nM.
The like results for `CC(=O)Oc1cc2c(c3ccccc13)[C@H](CCl)CN2C(=O)c1nnc(C(=O)N2C[C@@H](CCl)c3c2cc(OC(C)=O)c2ccccc32)s1` [Compound 144, 1,3,4-thiadiazole-2,5-diylbis[carbonyl(1S)-1-(chloromethyl)-1,2-dihydro-3H-benzo[e]indole-3,5-diyl] diacetate] were, in that order, over 10 nM and 3 nM.
For `O=C(c1cccc(C(=O)N2C[C@@H](CCl)c3c2cc(O)c2ccccc32)n1)N1C[C@@H](CCl)c2c1cc(O)c1ccccc21` [Compound 18, (S)-pyridine-2,6-diylbis(((S)-1-(chloromethyl)-5-hydroxy-1H-benzo[e]indol-3(2H)-yl)methanone)] the same measures were 174 nM and 2.19 nM.
In the case of `CC(=O)Oc1cc2c(c3ccccc13)[C@H](CCl)CN2C(=O)C12CC(C(=O)N3C[C@@H](CCl)c4c3cc(OC(C)=O)c3ccccc43)(C1)C2` [Compound 152, bicyclo[1.1.1]pentane-1,3-diylbis[carbonyl(1S)-1-(chloromethyl)-1,2-dihydro-3H-benzo[e]indole-3,5-diyl] diacetate], the IC50 in assay [1] (Homo sapiens, 96 h) came out at 0.278 nM; with HL60 (leukemia) (Homo sapiens, 96 h), 0.008 nM.
For `CC(=O)Oc1cc2c(c3ccccc13)[C@H](CCl)CN2C(=O)C12CCC(C(=O)N3C[C@@H](CCl)c4c3cc(OC(C)=O)c3ccccc43)(C1)C2` [Compound 82, (1S,4S)-bicyclo[2.1.1]hexane-1,4-diylbis[carbonyl(1S)-1-(chloromethyl)-1,2-dihydro-3H-benzo[e]indole-3,5-diyl]diacetate] the same measures were 3.24 nM and 0.359 nM.
The like results for `O=C(c1ccc(C(=O)N2C[C@@H](CCl)c3c2cc(O[C@@H]2O[C@H](CO)[C@H](O)[C@H](O)[C@H]2O)c2ccccc32)s1)N1C[C@@H](CCl)c2c1cc(O)c1ccccc21` [Compound 145, ((S)-1-(chloromethyl)-5-(((2S,3R,4S,5R,6R)-3,4,5-trihydroxy-6-(hydroxymethyl)tetrahydro-2H-pyran-2-yl)oxy)-1,2-dihydro-3H-benzo[e]indol-3-yl)(5-((S)-1-(chloromethyl)-5-hydroxy-2,3-dihydro-1H-benzo[e]indole-3-carbonyl)thiophen-2-yl)methanone] were, in that order, 0.13 nM and 0.051 nM.
For the molecule `CC(=O)Oc1cc2c(c3ccccc13)[C@H](CCl)CN2C(=O)C12CCC(C(=O)N3C[C@@H](CCl)c4c3cc(OC(C)=O)c3ccccc43)(CC1)CC2` [Compound 159, bicyclo[2.2.2]octane-1,4-diylbis[carbonyl(1S)-1-(chloromethyl)-1,2-dihydro-3H-benzo[e]indole-3,5-diyl] diacetate], the IC50 in assay [1] (Homo sapiens, 96 h) was determined as 2.39 nM; with HL60 (leukemia) (Homo sapiens, 96 h) it was 0.045 nM.
The like results for `Nc1ccc(CCC(=O)N(CC(=O)N2C[C@@H](CCl)c3c2cc(O)c2ccccc32)CC(=O)N2C[C@@H](CCl)c3c2cc(O)c2ccccc32)cc1` [Compound 56, 3-(4-Amino-phenyl)-N,N-bis-[2-((S)-1-chloromethyl-5-hydroxy-1,2-dihydro-benzo[e]indol-3-yl)-2-oxo-ethyl]-propionamide] were, in that order, at least 100 nM and 6.93 nM.
The like results for `CC(=O)Oc1cc2c(c3c(C)c[nH]c13)[C@H](CCl)CN2C(=O)C12CCC(C(=O)N3C[C@@H](CCl)c4c3cc(OC(C)=O)c3[nH]cc(C)c43)(CC1)CC2` [Compound 85, bicyclo[2.2.2]octane-1,4-diylbis[carbonyl(1S)-1-(chloromethyl)-8-methyl-1,6-dihydropyrrolo[3,2-e]indole-3,5(2H)-diyl]diacetate] were, in that order, 0.053 nM and 0.005 nM.
